In brackets after ≈: the same amount, converted by molar mass.
Key:
T. evansi AntTat 3/3 = assay: Resazurin-based (Alamar blue) drug sensitivity assay; settings: read-out: IC50 T. evansi
[1] = tested on: Escherichia coli (ATCC 25922); assay: Antibacterial MIC, broth microdilution (CLSI); format: cell-based; settings: Escherichia coli, ATCC25922; read-out: MIC80 E. coli
T. equiperdum = assay: Resazurin-based (Alamar blue) drug sensitivity assay; settings: Trypanosoma equiperdum, read-out: IC50 T. equiperdum
Experimental: A detailed description of the procedure for evaluating activity against trypanosomes, using an Alamar Blue (resazurin) assay, is described below.
The bloodstream form (BSF) T. b. brucei s427 (see De Koning, H. P. et al., Mol. Biochem. Parasitol. 2000, 106, 181-185), T. evansi AntTat 3/3 (see Dean, S. et al., Proc. Natl. Acad. Sci. USA, 2013, 110, 14741-14746), and T. equiperdum (see Stewart, M. L. et al., Eukaryot. Cell, 2010, 9, 336-343) were cultured in HMI-9 medium (Life Technologies, Paisley, United Kingdom) supplemented with 10% heat inactivated Foetal Bovine Serum (FBS (PAA Laboratories Linz, Austria)), 14 μL/L β-mercaptoethanol (BDH, Dorset, UK), and 3.0 g/L NaHCO3 (Sigma-Aldrich) and adjusted to pH 7.4. These cell lines were maintained at 37° C. in a humidified, 5% CO2 environment.
A resazurin-based (Alamar blue) drug sensitivity assay was used to assess and compare the activity of standard trypanocides in the different cell lines investigated (see Gould, M. K. et al., Anal. Biochem., 2008, 382, 87-93). Briefly, 23 doubling dilutions of the test compound of the invention, starting at 100 μM, and a compound-free control were prepared in 100 μL medium in a 96-well white plate (Greiner Bio-one, Frickenhausen, Germany). The cells were adjusted to 2×10^4 cells/mL for T. b. brucei and T. equiperdum; 4×10^4 cells/mL for T. evansi; and 5×10^5 cells/mL for T. congolense in the appropriate medium. 100 μL of the adjusted cells was then added to the wells containing drug dilutions and incubated for 48 h under respective culture condition. Thereafter, 20 μL of 125 mg/mL resazurin sodium dye was added, and the plate was incubated for a further 24 h.

[2] = tested on: Enterococcus faecalis (ATCC 51299); assay: Antibacterial MIC, broth microdilution (CLSI); format: cell-based; settings: for MIC80: Enterococcus faecalis, ATCC51299, read-out: MIC80 E. faecalis; for E. faecalis Selectivity Indices, Group: SI, IC50 (μM)/MIC80 (μM), HEK293 cytotoxicity
[3] = tested on: PolyAU double stranded RNA; assay: Fluorescence intercalator displacement (FID) assay, SYBR-safe probe; settings: 20 μM compound, 30° C., lower % = stronger binding
Summary of the method: (§1)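 Probe displacement was measured at 30 °C in 1 mM phosphate pH 7.4 containing SybrSafe (12500-fold dilution), 3.76 ng/mL nucleic acid (salmon dsDNA or polyAU dsRNA) and 20 μM compound. Fluorescence loss is normalised between probe-only and probe-plus-nucleic-acid controls.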

[4] = tested on: Genomic double stranded DNA (salmon); assay: as above; settings: 20 μM compound, 30° C., lower % = stronger binding
Summary of the method: as §1

[5] = tested on: Staphylococcus aureus (ATCC 43300); assay: Antibacterial MIC, broth microdilution (CLSI); format: cell-based; settings: for MIC80: Staphylococcus aureus, ATCC43300, read-out: MIC80 S. aureus
[6] = tested on: SARS-CoV-2 (hCoV-19/Australia/VIC01/2020); assay: SARS-CoV-2 microplaque inhibition assay in Vero-E6 cells; format: cell-based; settings: for SARS-CoV-2 Selectivity Indices, Group: SI, IC50 (μM)/IC50 (μM), HEK293 cytotoxicity, Alkyl Amidines and NH Pyrroles
Candida auris (H.17.157) = settings: for MIC99: Candidozyma auris, read-out: MIC99 Candida auris; for C. auris Selectivity Indices, Group: SI, IC50 (μM)/MIC99 (μg/mL), HEK293 cytotoxicity, Alkyl Amidines and NH Pyrroles
Experimental: (§2) The Minimum Inhibitory Concentration (MIC, at 99% inhibition) of the compounds was determined using the broth microdilution method as recommended by EUCAST (EUCAST Definitive Document E.DEF 9.3.2, Method for the determination of broth dilution minimum inhibitory concentrations of antifungal agents for conidia forming moulds and EUCAST Definitive Document E.DEF 7.3.2 Method for the determination of broth dilution minimum inhibitory concentrations of antifungal agents for yeasts).

[7] = tested on: Rhizopus arrhizus (NEQAS12.35321); settings: read-out: MIC99 Rhizopus arrhizus
Experimental: as §2

T. vaginalis = assay: Trichomonas resorufin assay; format: cell-based; settings: for IC50: Trichomonas vaginalis, read-out: IC50 T. vaginalis
[8] = tested on: Candida glabrata (ACPF3309); settings: for MIC99: Nakaseomyces glabratus, read-out: MIC99 Candida glabrata; for C. glabrata Selectivity Indices, Group: SI, IC50 (μM)/MIC99 (μg/mL), HEK293 cytotoxicity, Alkyl Amidines and NH Pyrroles
Experimental: as §2

C. neoformans (F10025) = settings: Cryptococcus neoformans, read-out: MIC99 C. neoformans
[9] = tested on: A. fumigatus A1160 (MFIG001); settings: Aspergillus fumigatus, read-out: MIC99 A. fumigatus A1160
[10] = SI, IC50 (μM)/MIC80 (μM), HEK293 cytotoxicity, Alkyl Amidines and NH Pyrroles
[11] = SI, IC50 (μM)/IC50 (μM), HEK293 cytotoxicity, Alkyl Amidines and NH Pyrroles

SMILES	MIC80 [1] [µM]	MIC80 [2] [µM]	% Normalised Fluorescence with polyAU RNA [3] [%]	% Normalised Fluorescence with gDNA [4] [%]	MIC80 [5] [µM]	MIC99 (Candida auris (H.17.157)) [µg/mL]	MIC99 [7] [µg/mL]	MIC99 [8] [µg/mL]	MIC99 (C. neoformans (F10025)) [µg/mL]	MIC99 [9] [µg/mL]	S. aureus Selectivity Indices, Group [5, 10]	T. vaginalis Selectivity Indices, Group (T. vaginalis; [11])	C. glabrata Selectivity Indices, Group [8]	SARS-CoV-2 Selectivity Indices, Group [6]	E. faecalis Selectivity Indices, Group ([2]; Alkyl Amidines and NH Pyrroles)	also measured
Cn1cc(NC(=O)c2ccc(/C=C/c3ccc4nonc4c3)cc2)cc1C(=O)Nc1c[nH]c(C(=O)NCCN2CCOCC2)c1 [IIIb1, (E)-4-(4-(2-(benzo[c][1,2,5]oxadiazol-5-yl)vinyl)benzamido)-1-methyl-N-(5-((2-morpholinoethyl)carbamoyl)-1H-pyrrol-3-yl)-1H-pyrrole-2-carboxamide]	> 100	> 100	30	47	5 to 25 (≈ 3.04 to 15.2 µg/mL)											IC50 (T. evansi AntTat 3/3): 10 to 100 nM; IC50 (T. equiperdum): 10 to 100 nM
CCN(CC)CCCC(C)Nc1ccnc2cc(Cl)ccc12 (stereo not drawn) [chloroquine diphosphate, reference compound]																IC50 ([6]; Severe acute respiratory syndrome coronavirus 2, Vero C1008, read-out: IC50 SARS-CoV-2 infectious viral foci): 641 nM
[H]/N=C(\CCNC(=O)c1cc(NC(=O)c2cc(NC(=O)c3ccc(C=Cc4ccc5nonc5c4)cc3)cn2C)cn1C)N1CCCCC1 [Ib2, (E)-4-(4-(2-(benzo[c][1,2,5]oxadiazol-5-yl)vinyl)benzamido)-N-(5-((3-imino-3-(piperidin-1-yl)propyl)carbamoyl)-1-methyl-1H-pyrrol-3-yl)-1-methyl-1H-pyrrole-2-carboxamide]	> 100	< 5	3	12	< 5	> 50	5 to 25 (≈ 7.72 to 38.6 µM)	< 5	5 to 25 (≈ 7.72 to 38.6 µM)	5 to 25 (≈ 7.72 to 38.6 µM)						IC50 (T. vaginalis): < 1000 nM
[H]/N=C(\CCNC(=O)c1cc(NC(=O)c2cc(NC(=O)c3ccc(C=Cc4ccc(N(C)C)cc4)nc3)cn2C)cn1C)NCCCCCCCCC [Ia32, (E)-6-(4-(dimethylamino)styryl)-N-(5-((5-((3-imino-3-(nonylamino)propyl)carbamoyl)-1-methyl-1H-pyrrol-3-yl)carbamoyl)-1-methyl-1H-pyrrol-3-yl)nicotinamide]	> 100	> 100	23	67	< 5	> 50	> 50	5 to 25 (≈ 7.06 to 35.3 µM)	5 to 25 (≈ 7.06 to 35.3 µM)	> 50	C (Group C: 5 < SI <= 10)					IC50 (T. vaginalis): > 50000 nM
COc1ccc(/C=C/c2ccc(C(=O)Nc3cc(C(=O)Nc4cc(C(=O)NCCN5CCOCC5)n(C)c4)n(C)c3)cn2)cc1 [Ref-2, reference compound]											A (Group A: SI < 3)	A (Group A: SI < 8)	A (Group A: SI < 12)	A (Group A: SI < 4.1)	A (Group A: SI < 3)	C. auris Selectivity Indices, Group (Candida auris (H.17.157)): A (Group A: SI < 0.4)
CCCCNC(=N)CCNC(=O)c1cc(NC(=O)c2cc(NC(=O)c3ccc(/C=C/c4cnc5ccccc5c4)cc3)cn2C)cn1C [Ia34, (E)-N-(3-(butylamino)-3-iminopropyl)-1-methyl-4-(1-methyl-4-(4-(2-(quinolin-3-yl)vinyl)benzamido)-1H-pyrrole-2-carboxamido)-1H-pyrrole-2-carboxamide]	> 100	5 to 25 (≈ 3.22 to 16.1 µg/mL)	6	7	< 5	> 50	> 50	5 to 25 (≈ 7.75 to 38.8 µM)	25 to 50 (≈ 38.8 to 77.5 µM)	> 50	D (D: SI > 10)					IC50 (T. vaginalis): 1000 to 5000 nM; S. aureus Selectivity Index (SI) ([5]; SI, IC50 (μM)/MIC80 (μM), HEK293 cytotoxicity, numeric value): 15
COc1cccc(/C=C/c2ccc(C(=O)Nc3cc(C(=O)Nc4cc(C(=O)NCCC(=N)N)n(C)c4)n(C)c3)cc2)c1 [Ref-5, reference compound]											A (Group A: SI < 3)	A (Group A: SI < 8)	A (Group A: SI < 12)	A (Group A: SI < 4.1)	A (Group A: SI < 3)	
Cn1cc(NC(=O)c2cc(NC(=O)c3ccc(/C=C/c4cnc5ccccc5c4)cc3)cn2C)cc1C(=O)NCCN1CCOCC1 [Ref-3, (E)-1-methyl-4-(1-methyl-4-(4-(2-(quinolin-3-yl)vinyl)benzamido)-1H-pyrrole-2-carboxamido)-N-(2-morpholinoethyl)-1H-pyrrole-2-carboxamide, reference compound]											A (Group A: SI < 3)	A (Group A: SI < 8)	A (Group A: SI < 12)	A (Group A: SI < 4.1)	A (Group A: SI < 3)	C. auris Selectivity Indices, Group (Candida auris (H.17.157)): A (Group A: SI < 0.4); T. vaginalis Selectivity Indices, Group (T. vaginalis; SI, IC50 (μM)/IC50 (μM), HEK293 cytotoxicity, Amides): A (Group A: SI < 0.25); E. faecalis Selectivity Indices, Group ([2]; Amides): A (Group A: SI < 0.4); S. aureus Selectivity Indices, Group ([5]; SI, IC50 (μM)/MIC80 (μM), HEK293 cytotoxicity, Amides): A (Group A: SI < 1.4)
COc1cccc(/C=C/c2ccc(C(=O)Nc3cc(C(=O)Nc4cc(C(=O)NCCN5CCOCC5)n(C)c4)n(C)c3)cc2)c1 [Ref-1, reference compound]											A (Group A: SI < 3)	A (Group A: SI < 8)	A (Group A: SI < 12)	A (Group A: SI < 4.1)	A (Group A: SI < 3)	C. auris Selectivity Indices, Group (Candida auris (H.17.157)): A (Group A: SI < 0.4)
Cn1cc(NC(=O)c2cc(NC(=O)c3ccc(/C=C/c4cnc5ccccc5c4)cc3)cn2C)cc1C(=O)NCCC1CCCCC1 [IVa3, (E)-N-(2-cyclohexylethyl)-1-methyl-4-(1-methyl-4-(4-(2-(quinolin-3-yl)vinyl)benzamido)-1H-pyrrole-2-carboxamido)-1H-pyrrole-2-carboxamide]	> 100	> 100			25 to 100 (≈ 15.7 to 62.9 µg/mL)											IC50 (T. evansi AntTat 3/3): 100 to 1000 nM; IC50 (T. equiperdum): 100 to 1000 nM
CCNC(=N)CCNC(=O)c1cc(NC(=O)c2cc(NC(=O)c3ccc(/C=C/c4ccc(OC)cc4)nc3)cn2C)cn1C [Ia24, (E)-N-(5-((5-((3-(ethylamino)-3-iminopropyl)carbamoyl)-1-methyl-1H-pyrrol-3-yl)carbamoyl)-1-methyl-1H-pyrrol-3-yl)-6-(4-methoxystyryl)nicotinamide]	> 100		4	1	< 5	> 50	> 50	5 to 25 (≈ 8.38 to 41.9 µM)	5 to 25 (≈ 8.38 to 41.9 µM)	25 to 50 (≈ 41.9 to 83.8 µM)		D (Group D: SI > 32)			C (Group C: 5 < SI <= 10)	T. vaginalis Selectivity Index (SI) (T. vaginalis; SI, IC50 (μM)/IC50 (μM), HEK293 cytotoxicity, numeric value): 69

From patent US20250313546A1, “NUCLEIC ACID BINDERS” (UNIVERSITY OF STRATHCLYDE, priority 2022, published 2025)
